Test results reported in patent US20240139221A1, “TREATMENT OF HPV-INDUCED NEOPLASIA” (priority 2022, published 2024).

Columns and labels:
[1] = Hygroscopicity by DVS at 25° C.; format: physicochemical; conditions: DVS 25° C.; for S. (%) Cycle 1: Sorption cycle 1; for S. (%) Cycle 2: Sorption cycle 2
Description: Hygroscopicity was investigated by DVS at 25° C., using the following method: […]

[2] = Bulk stability (accelerated stability, one week; HPLC and XRPD)
Description: Bulk stability: Accelerated stability experiments were conducted at 25° C./92% RH and 40° C./75% RH in an open container, 60° C. in a tight container for one week.
Samples were characterized by XRPD and HPLC and inspected for color change.
Accelerated stability experiments were conducted at 25° C./92% RH in an open container, at 40° C./75% RH in an open container, and at 60° C. in a tight container for one week.

[3] = Solubility in buffers, water and simulated vaginal fluid at 37° C.; conditions: for solubility at 0.5 h / solubility at 2 h: 37 °C, thermodynamic from solid; for pH of solution at 2 hrs: 37° C.
Description: About 4 mg of Compound I Pattern 1 was added into 2 mL of buffer solution.
(§1) Solubility was tested in five media, pH 3.0 citrate buffer, pH 4.5 acetate buffer, pH 6.8 phosphate buffer, water, simulated vaginal fluid (pH 4.2) at 37° C. for 0.5 h and 2 h.
The salt amount used is equivalent to 10 mg anhydrous free base. […] The obtained clear solutions were analyzed by pH meter for pH, and solubility was determined by observation.
as §1

[4] = Behavior under compression, grinding simulation and granulation simulation (XRPD); format: physicochemical
Description: About 10 mg of Compound I monofumarate Pattern 1 (Example 7) was compressed for 5 minutes at 10 MPa with a hydraulic press. XRPD characterization was performed to investigate the polymorphic behavior under compression.
About 10 mg of Compound I monofumarate Pattern 1 (Example 7) was ground manually with a mortar and pestle for 5 min. Form transformation and degree of crystallinity was evaluated by XRPD.
Water or ethanol was added drop wise to about 10 mg of Compound I monofumarate Pattern 1 (Example 7) until solids were wetted sufficiently. The samples were ground manually with a mortar and pestle for 3 minutes. Samples are dried under ambient condition for 10 min. Form transformation and degree of crystallinity were evaluated by XRPD.

[5] = Tablet stability study (purity by HPLC); format: physicochemical
Description: Tablets were prepared using the excipients and excipient ratios shown in the first column of the following tables. The tablets were then stored under the conditions indicated and periodically sampled and tested for purity by HPLC.

[6] = 25° C., 92% RH, open container, one week
[7] = 40° C., 75% RH, open container, one week
[8] = 60° C., tight container, one week
[9] = pH 4.2, fassgf or other biorelevant
[10] = ground manually with mortar and pestle for 5 min
[11] = excipients PC (7.5%) + MCC (91.46%) + MgS (1%)
[12] = excipients PC (7.5%) + Mannitol (91.46%) + MgS (1%)
[13] = excipients PEO-15 (25%) + MCC (74%) + MgS (1%)
[14] = excipients PEO-15 (25%) + Mannitol (74%) + MgS (1%)

Question: With `CCOC(=O)[C@H](C)NP(=O)(COCCn1cnc2c(OC)nc(N)nc21)OCc1ccccc1.O=C(O)/C=C/C(=O)O` (mixture of isomers) [Compound I monofumarate, (±)-(2S)-Ethyl-2-((((2-(2-amino-6-methoxy-9H-purin-9-yl)-ethoxy)-methyl)-(benzyloxy)-phosphoryl)-amino)-propionate monofumarate] as the compound, how does the “S. (%) Cycle 1” value ([1]; 50% RH) read?
Answer: The value was 0.71%.

Question: And the “S. (%) Cycle 1” value ([1]; 60% RH)?
Answer: Its value is 0.85%.

Question: And the “S. (%) Cycle 1” value ([1]; 70% RH)?
Answer: Its value is 1.02%.

Question: And the “S. (%) Cycle 1” value ([1]; 80% RH)?
Answer: Its value is 1.27%.

Question: And the “S. (%) Cycle 1” value ([1]; 90% RH)?
Answer: The value was 1.78%.

Question: And the “S. (%) Cycle 1” value ([1]; 95% RH)?
Answer: Its value is 2.89%.

Question: What about the “S. (%) Cycle 2” value ([1]; 0% RH) of the same compound?
Answer: Its value is 0.09%.

Question: And the “S. (%) Cycle 2” value ([1]; 10% RH)?
Answer: Its value is 0.18%.

Question: What about the “S. (%) Cycle 2” value ([1]; 20% RH) of the same compound?
Answer: Its value is 0.27%.

Question: And the “S. (%) Cycle 2” value ([1]; 30% RH)?
Answer: The value was 0.37%.

Question: And the “S. (%) Cycle 2” value ([1]; 40% RH)?
Answer: The value was 0.47%.

Question: And the water uptake ([1]; up to 95% RH)?
Answer: Its water uptake is “about 2.9%”.

Question: What about the XRPD after storage ([2]; 25° C., 84% RH, open container, 2 days) of the same compound?
Answer: The XRPD after storage was “No change”.

Question: And the “HPLC (purity) after storage” value [2, 6]?
Answer: The value was 98.2%.

Question: And the XRPD after storage [2, 6]?
Answer: Its XRPD after storage is “No change”.

Question: What about the “HPLC (purity) after storage” value [2, 7] of the same compound?
Answer: The value was 95.6%.

Question: What about the XRPD after storage [2, 7] of the same compound?
Answer: Its XRPD after storage is “No change”.

Question: What about the “HPLC (purity) after storage” value [2, 8] of the same compound?
Answer: Its value is 95.5%.

Question: And the XRPD after storage [2, 8]?
Answer: Its XRPD after storage is “No change”.

Question: And the “HPLC (purity), Initial” value ([2]; initial, before storage)?
Answer: The value was 98.6%.

Question: And the solubility at 0.5 h ([3]; pH 3, aqueous buffer)?
Answer: Its solubility at 0.5 h is greater than 2000 µg/mL.

Question: What about the solubility at 2 h ([3]; pH 3, aqueous buffer) of the same compound?
Answer: The solubility at 2 h was greater than 2000 µg/mL.

Question: What about the solubility at 0.5 h [3, 9] of the same compound?
Answer: The solubility at 0.5 h was greater than 2000 µg/mL.

Question: What about the solubility at 2 h [3, 9] of the same compound?
Answer: Its solubility at 2 h is greater than 2000 µg/mL.

Question: What about the solubility at 0.5 h ([3]; pH 4.5, aqueous buffer) of the same compound?
Answer: The solubility at 0.5 h was greater than 2000 µg/mL.

Question: What about the solubility at 2 h ([3]; pH 4.5, aqueous buffer) of the same compound?
Answer: Its solubility at 2 h is greater than 2000 µg/mL.

Question: And the solubility at 0.5 h ([3]; pH 6.8, aqueous buffer)?
Answer: Its solubility at 0.5 h is greater than 2000 µg/mL.

Question: What about the solubility at 2 h ([3]; pH 6.8, aqueous buffer) of the same compound?
Answer: The solubility at 2 h was greater than 2000 µg/mL.

Question: What about the solubility at 0.5 h ([3]; water) of the same compound?
Answer: The solubility at 0.5 h was greater than 2000 µg/mL.

Question: And the solubility at 2 h ([3]; water)?
Answer: The solubility at 2 h was greater than 2000 µg/mL.

Question: And the “pH of solution at 2 hrs” value ([3]; Simulated vaginal fluid (pH adjusted with 0.2N NaOH))?
Answer: The value was “(5.39)”.

Question: What about the “pH of solution at 2 hrs” value ([3]; Water) of the same compound?
Answer: The value was “(3.11)”.

Question: What about the “pH of solution at 2 hrs” value ([3]; pH 3.0 100 mM citrate buffer) of the same compound?
Answer: The value was “(3.05)”.

Question: And the “pH of solution at 2 hrs” value ([3]; pH 4.5 50 mM acetate buffer)?
Answer: The value was “(4.36)”.

Question: What about the “pH of solution at 2 hrs” value ([3]; pH 6.8 50 mM phosphate buffer) of the same compound?
Answer: Its value is “(6.49)”.

Question: What about the “degree of crystallinity on grinding (XRPD)” value [4, 10] of the same compound?
Answer: Its value is “crystallinity slightly decreased”.

Question: What about the “form transformation on grinding (XRPD)” value [4, 10] of the same compound?
Answer: Its value is “no form change was observed”.

Question: And the “form transformation on granulation simulation (XRPD)” value ([4]; wetted with water or ethanol, ground 3 minutes, dried 10 min)?
Answer: Its value is “neither in ethanol, nor in water form change was observed”.

Question: And the “purity by HPLC, 0 months” value [5, 11]?
Answer: Its value is 99.81.

Question: And the “purity by HPLC, 1 month 25 C./60% RH” value [5, 11]?
Answer: Its value is 98.04.

Question: What about the “purity by HPLC, 1 month 40 C./75% RH” value [5, 11] of the same compound?
Answer: The value was 84.92.

Question: And the “purity by HPLC, 0 months” value [5, 12]?
Answer: Its value is 99.61.

Question: And the “purity by HPLC, 1 month 25 C./60% RH” value [5, 12]?
Answer: The value was 98.77.

Question: What about the “purity by HPLC, 1 month 40 C./75% RH” value [5, 12] of the same compound?
Answer: Its value is 85.26.

Question: What about the “purity by HPLC, 0 months” value [5, 13] of the same compound?
Answer: Its value is 99.03.

Question: What about the “purity by HPLC, 1 month 25 C./60% RH” value [5, 13] of the same compound?
Answer: Its value is 97.76.

Question: And the “purity by HPLC, 1 month 40 C./75% RH” value [5, 13]?
Answer: Its value is 83.13.

Question: What about the “purity by HPLC, 0 months” value [5, 14] of the same compound?
Answer: The value was 97.95.

Question: And the “purity by HPLC, 1 month 25 C./60% RH” value [5, 14]?
Answer: The value was 97.04.

Question: What about the “purity by HPLC, 1 month 40 C./75% RH” value [5, 14] of the same compound?
Answer: Its value is 87.09.
